# Laboratory results published in patent US20220089575A1, “FARNESOID X RECEPTOR AGONISTS AND USES THEREOF” (Metacrine, Inc., priority 2017, published 2022).
# Molecular target: T1, hFXR (Homo sapiens, UniProt Q96RI1)
# T1 construct: expressed in transfected cells; host or cells: CV-1 cells
# T1 sequence (Q96RI1 1-486): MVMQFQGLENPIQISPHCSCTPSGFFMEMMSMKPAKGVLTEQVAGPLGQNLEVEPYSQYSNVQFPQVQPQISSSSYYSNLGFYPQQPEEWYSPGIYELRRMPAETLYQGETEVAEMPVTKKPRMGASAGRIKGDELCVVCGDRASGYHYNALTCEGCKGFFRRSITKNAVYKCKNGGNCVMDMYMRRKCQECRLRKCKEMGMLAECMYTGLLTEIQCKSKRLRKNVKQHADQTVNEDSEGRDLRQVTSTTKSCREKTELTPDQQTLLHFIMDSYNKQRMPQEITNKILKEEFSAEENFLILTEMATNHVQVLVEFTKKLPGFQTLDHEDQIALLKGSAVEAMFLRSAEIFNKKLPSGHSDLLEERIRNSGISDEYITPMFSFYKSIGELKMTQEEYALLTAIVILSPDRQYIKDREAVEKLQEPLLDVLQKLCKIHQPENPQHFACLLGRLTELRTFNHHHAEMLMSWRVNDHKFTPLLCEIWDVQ
# T1 sequence (P19793 1-462 partner): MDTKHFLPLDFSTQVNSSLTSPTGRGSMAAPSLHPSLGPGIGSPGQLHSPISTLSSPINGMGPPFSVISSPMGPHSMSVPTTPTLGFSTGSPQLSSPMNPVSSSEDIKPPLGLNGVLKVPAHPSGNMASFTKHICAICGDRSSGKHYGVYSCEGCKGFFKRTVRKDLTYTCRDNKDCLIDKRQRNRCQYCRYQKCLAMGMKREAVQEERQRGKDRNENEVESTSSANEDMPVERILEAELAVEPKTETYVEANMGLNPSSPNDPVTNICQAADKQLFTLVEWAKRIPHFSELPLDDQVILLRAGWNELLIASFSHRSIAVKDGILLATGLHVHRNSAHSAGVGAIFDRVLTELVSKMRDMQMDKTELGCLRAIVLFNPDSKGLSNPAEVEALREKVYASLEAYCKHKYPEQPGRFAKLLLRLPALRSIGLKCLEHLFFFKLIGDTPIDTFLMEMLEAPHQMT
# Test: In Vitro FXR Assay (TK): TK-ECRE-luc reporter in transfected CV-1 cells
# Format: cell-based
# Conditions: 18 hrs, luminescence, maximum efficacy of <25% of the Fexarmine control classified as '+'
# How it was run: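 Luciferase read-out after 18 h compound exposure of CV-1 cells carrying transfected hFXR plus hRXR expression plasmids, TK-ECRE-luc reporter and pCMX-YFP. Cells cultured in charcoal-stripped FBS before transfection; compounds serially diluted in DMSO.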
row,EC50 [nM],SMILES
1,≤ 250,"COc1ncc([C@H]2CC[C@H](CN(c3cccc(-c4cnn(C5CC5)c4)c3)C(=O)[C@H]3CC[C@H](OC(=O)N4CC(O)C4)CC3)CC2)cc1Cl [Compound 7.23, trans-4-(((trans-4-(5-Chloro-6-methoxypyridin-3-yl)cyclohexyl)methyl)(3-(1-cyclopropyl-1H-pyrazol-4-yl)phenyl)carbamoyl) cyclohexyl 3-hydroxyazetidine-1-carboxylate]"
2,≤ 250,"COc1ccc([C@H]2CC[C@H](CN(c3cccc(-c4cnn(C5CC5)c4)c3)C(=O)[C@H]3CC[C@H](OC(=O)NCCNS(C)(=O)=O)CC3)CC2)cc1C [Compound 26.24, trans-4-((3-(1-Cyclopropyl-1H-pyrazol-4-yl)phenyl)((trans-4-(4-methoxy-3-methylphenyl)cyclohexyl)methyl)carbamoyl)cyclohexyl (2-(methylsulfonamido)ethyl)carbamate]"
3,≤ 250,"COc1ccc([C@H]2CC[C@H](CN(c3cccc(-c4cnn(C5CC5)c4)c3)C(=O)[C@H]3CC[C@H](OC(=O)NCc4c[nH]cn4)CC3)CC2)cc1C [Compound 4.15, trans-4-((3-(1-Cyclopropyl-1H-pyrazol-4-yl)phenyl)((trans-4-(4-methoxy-3-methylphenyl)cyclohexyl)methyl)carbamoyl)cyclohexyl ((1H-imidazol-4-yl)methyl)carbamate]"
4,≤ 250,"COc1ccc([C@H]2CC[C@H](CN(c3cccc(-c4cnn(C5CC5)c4)c3)C(=O)[C@H]3CC[C@H](C(=O)OC)CC3)CC2)nc1C [Compound 18.19, trans-Methyl 4-((3-(1-cyclopropyl-1H-pyrazol-4-yl)phenyl)((trans-4-(5-methoxy-6-methylpyridin-2-yl)cyclohexyl)methyl)carbamoyl) cyclohexanecarboxylate]"
5,≤ 250,"COc1ccc(C23CCC(CN(c4cccc(-c5cnn(C6CC6)c5)c4)C(=O)[C@H]4CC[C@H](OC(=O)N5CC(O)C5)CC4)(CC2)CC3)cc1C [Compound 7.12, 4-((3-(1-Cyclopropyl-1H-pyrazol-4-yl)phenyl)((4-(4-methoxy-3-methylphenyl)bicyclo[2.2.2]octan-1-yl)methyl)carbamoyl)cyclohexyl trans-3-hydroxyazetidine-1-carboxylate]"
6,≤ 250,CNC1CN(C(=O)O[C@H]2CC[C@H](C(=O)N(C[C@H]3CC[C@H](c4ccc(OC)c(C)c4)CC3)c3cccc(-c4cnn(C5CC5)c4)c3)CC2)C1 [Compound 7.37]
7,≤ 250,"COc1ccc([C@H]2CC[C@H](CN(c3cccc(-c4cnn(C5CC5)c4)c3)C(=O)[C@H]3CC[C@H](NC(=O)C4CC(OC)C4)CC3)CC2)cc1C (stereo partly drawn) [Compound 30, trans-N-(3-(1-Cyclopropyl-1H-pyrazol-4-yl)phenyl)-N-((trans-4-(4-methoxy-3-methylphenyl)cyclohexyl)methyl)-4-(3-methoxycyclobutanecarboxamido)cyclohexanecarboxamide]"

# More lines, now with the values behind:
row,SMILES,EC50 [nM]
1,"COc1ncc(-c2cccc(N(C[C@H]3CC[C@H](c4ccc(OC)c(C)c4)CC3)C(=O)[C@H]3CC[C@H](CNC(C)=O)CC3)c2)s1 [Compound 25.06, trans-4-(Acetamidomethyl)-N-((trans-4-(4-methoxy-3-methylphenyl)cyclohexyl)methyl)-N-(3-(2-methoxythiazol-5-yl)phenyl)cyclohexanecarboxamide]",≤ 250
2,"COc1ccc([C@H]2CC[C@H](CN(c3cccc(-c4cnc(C5CC5)s4)c3)C(=O)[C@H]3CC[C@H](NC(=O)CNC(C)=O)CC3)CC2)cc1C [Compound 31.09, trans-4-(2-Acetamidoacetamido)-N-(3-(2-cyclopropylthiazol-5-yl)phenyl)-N-((trans-4-(4-methoxy-3-methylphenyl)cyclohexyl)methyl)cyclohexanecarboxamide]",≤ 250
3,"COc1ccc([C@H]2CC[C@H](CN(c3cc(-c4cnn(C(C)C)c4)ccn3)C(=O)[C@H]3CC[C@H](OC(=O)N4CC(C(C)C)C4)CC3)CC2)nc1C [Compound 7.57, trans-4-((4-(1-Isopropyl-1H-pyrazol-4-yl)pyridin-2-yl)((trans-4-(5-methoxy-6-methylpyridin-2-yl)cyclohexyl)methyl)carbamoyl)cyclohexyl 3-isopropylazetidine-1-carboxylate]",≤ 250
4,"CNC(=O)O[C@H]1CC[C@H](C(=O)N(C[C@H]2CC[C@H](c3ccc(OC)c(C#N)c3)CC2)c2cccc(-c3cnn(C(C)C)c3)c2)CC1 [Compound 5.15, trans-4-(((trans-4-(3-Cyano-4-methoxyphenyl)cyclohexyl)methyl)(3-(1-Isopropyl-1H-pyrazol-4-yl)phenyl)carbamoyl)cyclohexyl methylcarbamate]",≤ 250
5,"COC(=O)CC1CN(C(=O)O[C@H]2CC[C@H](C(=O)N(C[C@H]3CC[C@H](c4ccc(OC)c(C)n4)CC3)c3cc(-c4coc(C5CC5)n4)ccn3)CC2)C1 [Compound 7.85, trans-4-((4-(2-Cyclopropyloxazol-4-yl)pyridine-2-yl)((trans-4-(5-methoxy-6-methylpyridin-2-yl)cyclohexyl)methyl)carbamoyl)cyclohexyl 3-(2-methoxy-2-oxoethyl)azetidine-1-carboxylate]",≤ 250
6,"COc1ccc([C@H]2CC[C@H](CN(c3cc(-c4coc(C5CC5)n4)ccn3)C(=O)[C@H]3CC[C@H](OC(=O)N4CC(O)C4)CC3)CC2)cc1C#N [Compound 7.69, trans-4-(((trans-4-(3-Cyano-4-methoxyphenyl)cyclohexyl)methyl)(4-(2-cyclopropyloxazol-4-yl)pyridine-2-yl)carbamoyl)cyclohexyl 3-hydroxyazetidine-1-carboxylate]",≤ 250
7,"COc1ccc([C@H]2CC[C@H](CN(c3cccc(-c4coc(C5CC5)n4)c3)C(=O)[C@H]3CC[C@H](C(=O)O)CC3)CC2)nc1C [Compound 18.01, trans-4-((3-(2-Cyclopropyloxazol-4-yl)phenyl)((trans-4-(5-methoxy-6-methylpyridin-2-yl)cyclohexyl)methyl)carbamoyl) cyclohexanecarboxylic acid]",≤ 250
8,"COc1ccc([C@H]2CC[C@H](CN(c3cccc(-c4coc(C5CC5)n4)c3)C(=O)[C@H]3CC[C@H](CC(=O)O)CC3)CC2)nc1C [Compound 21.03, 2-(trans-4-((3-(2-Cyclopropyloxazol-4-yl)phenyl)((trans-4-(5-methoxy-6-methylpyridin-2-yl)cyclohexyl)methyl)carbamoyl)cyclohexyl) acetic acid]",≤ 250
9,"COc1ccc([C@H]2CC[C@H](CN(c3cc(-c4coc(C5CC5)n4)ccn3)C(=O)[C@H]3CC[C@H](OC(=O)N4CC(C)C4)CC3)CC2)nc1C [Compound 7.89, trans-4-((4-(2-Cyclopropyloxazol-4-yl)pyridine-2-yl)((trans-4-(5-methoxy-6-methylpyridin-2-yl)cyclohexyl)methyl)carbamoyl)cyclohexyl 3-methylazetidine-1-carboxylate]",≤ 250
10,"CNC(=O)O[C@H]1CC[C@@H](C(=O)N(CC2CCC(c3ccc(OC)c(C#N)c3)CC2)c2cc(-c3cnn(C(C)C)c3)ccn2)CC1 (stereo partly drawn) [Compound 5.19, cis-4-(((4-(3-Cyano-4-methoxyphenyl)cyclohexyl)methyl)(4-(1-isopropyl-1H-pyrazol-4-yl)pyridin-2-yl)carbamoyl)cyclohexyl methylcarbamate]",≤ 250
11,"COc1ccc([C@H]2CC[C@H](CN(c3cc(-c4cnn(C5CC5)c4)ccn3)C(=O)[C@H]3CC[C@H](NC(=O)COC(C)=O)CC3)CC2)cc1C [Compound 26.31, 2-((trans-4-(4-(1-Cyclopropyl-1H-pyrazol-4-yl)pyridin-2-yl)((trans-4-(4-methoxy-3-methylphenyl)cyclohexyl)methyl)carbamoyl)cyclohexyl)amino)-2-oxoethyl acetate]",≤ 250
12,"COc1ccc([C@H]2CC[C@H](CN(c3cc(-c4cnn(C(C)C)c4)ccn3)C(=O)[C@H]3CC[C@H](OC(=O)NCCO)CC3)CC2)cc1C [Compound 6.17, trans-4-((4-(1-Isopropyl-1H-pyrazol-4-yl)pyridin-2-yl)((trans-4-(4-methoxy-3-methylphenyl)cyclohexyl)methyl)carbamoyl)cyclohexyl (2-hydroxyethyl)carbamate]",≤ 250
13,"COc1ccc([C@H]2CC[C@H](CN(c3cc(-c4cnn(C(C)C)c4)ccn3)C(=O)[C@H]3CC[C@H](OC(=O)N4CC(CO)C4)CC3)CC2)cc1C#N [Compound 7.51, trans-4-(((trans-4-(3-Cyano-4-methoxyphenyl)cyclohexyl)methyl)(4-(1-isopropyl-1H-pyrazol-4-yl)pyridin-2-yl)carbamoyl)cyclohexyl 3-(hydroxymethyl)azetidine-1-carboxylate]",≤ 250
